Test results as given in article PMC11335262 (Cellular and Molecular Life Sciences: CMLS, 2024).
Where two headings read alike, the source gives them in different places.

Tests used:
α9α10 nAChR = α9α10 nAChR (Rattus norvegicus, UniProt P43144+Q9JLB5); assay type: cell-based; conditions: 10 µM ACh; for ACh response, % of responses at […] Ca^2+: Vhold -90
α9α10^α9Nt = α9α10^α9Nt (Rattus norvegicus, UniProt P43144+Q9JLB5, A103S/A128E/A130V/A141L/A146S/A160Y/A165S/A191G/A194S/A39E/A49E/A97Q/D100R/E60Q/E85T/G169N/G178N/G188L/G99D/H138Y/H177Y/H180N/H92T/I67K/K96D/L182V/L205H/L214I/L78A/N199D/N40D/P126S/P127S/P186N/P95R/Q125E/Q53A/R109D/R143T/R151K/R155V/R167Q/R185F/R187A/R203E/R210V/R211K/R212N/R233K/R35S/S129P/S131N/S159T/S192D/T124D/T189D/T215S/T42S/T54V/T87H/V136L/V142I/V184I/V197I/V75I); assay type: cell-based; conditions: 10 µM ACh; for ACh response, % of response at […] Ca^2+: Vhold -90
homomeric α9 nAChR = conditions: cited from earlier work
α9α10^α9Nt–TM2TM3loop = α9α10^α9Nt–TM2TM3loop (Rattus norvegicus, UniProt P43144+Q9JLB5); assay type: cell-based; conditions: for ACh response, % of response at […] Ca^2+: Vhold -90
α9α10E71Q = α9α10E71Q (Rattus norvegicus, UniProt P43144+Q9JLB5, E71Q); assay type: cell-based
α9α10E287Q = α9α10E287Q (Rattus norvegicus, UniProt P43144+Q9JLB5, E287Q); assay type: cell-based
α9α10^α9extra = α9α10^α9extra (Rattus norvegicus, UniProt P43144+Q9JLB5, A264D/A308T/A312F/A328P/E329N/F253L/F325Y/H335A/I246L/I275V/I304M/I310V/I323L/L250F/L309M/M279L/M285I/M319L/R331H/S258A/V286L/V320I/Y260H); assay type: cell-based; conditions: for ACh response, % of response at […] Ca^2+: Vhold -90
α9α10^α9TM2TM3loop = α9α10^α9TM2TM3loop (Rattus norvegicus, UniProt P43144+Q9JLB5, A292S/P291A/S288I/S294N); assay type: cell-based; conditions: for ACh response, % of response at […] Ca^2+: Vhold -90
α9α10^α9Nt–TM1TM2loop = α9α10^α9Nt–TM1TM2loop (Rattus norvegicus, UniProt P43144+Q9JLB5, A103S/A128E/A130V/A141L/A146S/A160Y/A165S/A191G/A194S/A236S/A237S/A238F/A257S/A39E/A49E/A97Q/C241V/D100R/D263A/E60Q/E85T/F249L/G169N/G178N/G188L/G99D/H138Y/H177Y/H180N/H259Y/H92T/I67K/K96D/L182V/L205H/L214I/L245I/L252F/L78A/N199D/N40D/P126S/P127S/P186N/P95R/Q125E/Q53A/R109D/R143T/R151K/R155V/R167Q/R185F/R187A/R203E/R210V/R211K/R212N/R233K/R35S/S129P/S131N/S159T/S192D/T124D/T189D/T215S/T42S/T54V/T87H/V136L/V142I/V184I/V197I/V240I/V75I); assay type: cell-based; conditions: 40 µM ACh; for ACh response, % of response at […] Ca^2+: Vhold -90
α9α10E201Q = α9α10E201Q (Rattus norvegicus, UniProt P43144+Q9JLB5, E201Q); assay type: cell-based
[1] = read-out: Ca^2+ IC50, block of responses to 100 µM ACh

## [Ca+2] [Ca^2+, Calcium]
α9α10 nAChR
  modulation of ACh-evoked responses by extracellular Ca^2+ (in words): potentiated by sub-millimolar Ca^2+ concentrations
α9α10 nAChR; 0.5 mM Ca^2+ (maximum)
  ACh response, % of responses at […] Ca^2+: 142.98 ± 10.12%
α9α10 nAChR; nominally zero Ca^2+
  ACh response, % of responses at […] Ca^2+: 16.79 ± 6.47%
α9α10^α9Nt
  modulation of ACh-evoked responses by extracellular Ca^2+ (in words): potentiated by Ca^2+ up to 0.2 mM and blocked by higher concentrations
α9α10^α9Nt; 0.2 mM Ca^2+
  ACh response, % of response at […] Ca^2+: 225.8 ± 18.9%
α9α10^α9Nt; 3 mM Ca^2+
  ACh response, % of response at […] Ca^2+: 64.9 ± 5.9%
α9α10^α9Nt; +40 mV
  0.2 / 0 Ca^2+ ratio of response amplitudes: 2.5 ± 0.3
α9α10^α9Nt; -90 mV
  0.2 / 0 Ca^2+ ratio of response amplitudes: 2.1 ± 0.4
α9α10^α9Nt; nominally zero Ca^2+
  ACh response, % of response at […] Ca^2+: 115.2 ± 27.3%
Homomeric α9 nAChR; […] Ca^2+, 100 µM ACh, Vhold -70, homomeric α9
  ACh response amplitude normalized to 0 mM Ca^2+ (Imax): 5.63 ± 0.58%
Homomeric α9 nAChR; rat α9 nAChRs
  modulation of ACh-evoked responses by extracellular Ca^2+ (in words): only blocked by this ion
Homomeric α9 nAChR; read-out: Ca^2+ IC50 (50% of response block), homomeric α9, -70 mV
  IC50: 100 ± 10 µM
α9α10^α9Nt–TM2TM3loop; 5 µM ACh
  modulation of ACh-evoked responses by extracellular Ca^2+ (in words): only blocked by increasing Ca^2+ concentrations
α9α10^α9Nt–TM2TM3loop; 3 mM Ca^2+, 5 µM ACh
  ACh response, % of response at […] Ca^2+: 108.1 ± 10.7%
α9α10^α9Nt–TM2TM3loop; +40 mV, 5 µM ACh
  3 / 0 Ca^2+ ratio of response: 1.2 ± 0.3
α9α10^α9Nt–TM2TM3loop; -90 mV, 5 µM ACh
  3 / 0 Ca^2+ ratio of response: 0.20 ± 0.03
α9α10^α9Nt–TM2TM3loop; read-out: Ca^2+ IC50, block of responses to 5 µM ACh, -90 mV
  IC50: 500 ± 100 µM
α9α10^α9Nt–TM2TM3loop; zero Ca^2+, 5 µM ACh
  ACh response, % of response at […] Ca^2+: 611.3 ± 91.2%
α9α10E71Q; 100 µM ACh
  modulation of ACh-evoked responses by extracellular Ca^2+ (in words): not potentiated by Ca^2+
α9α10E71Q; 3 mM Ca^2+, 100 µM ACh
  ACh response, % of response at […] Ca^2+: 64.8 ± 2.7%
α9α10E71Q; +40 mV, 100 µM ACh
  3 / 0 Ca^2+ ratio of response: 1.05 ± 0.29
α9α10E71Q; -90 mV, 100 µM ACh
  3 / 0 Ca^2+ ratio of response: 0.25 ± 0.05
α9α10E71Q; [1]
  IC50: 800 ± 100 µM
α9α10E71Q; zero Ca^2+, 100 µM ACh
  ACh response, % of response at […] Ca^2+: 211.0 ± 35.6%
α9α10E287Q; 20 µM ACh
  modulation of ACh-evoked responses by extracellular Ca^2+ (in words): not potentiated by Ca^2+
α9α10E287Q; 3 mM Ca^2+, 20 µM ACh
  ACh response, % of response at […] Ca^2+: 67.6 ± 5.6%
α9α10E287Q; +40 mV, 20 µM ACh
  3 / 0 Ca^2+ ratio of response: 0.48 ± 0.04
α9α10E287Q; -90 mV, 20 µM ACh
  3 / 0 Ca^2+ ratio of response: 0.26 ± 0.02
α9α10E287Q; read-out: Ca^2+ IC50, block of responses to 20 µM ACh
  IC50: 300 ± 100 µM
α9α10E287Q; zero Ca^2+, 20 µM ACh
  ACh response, % of response at […] Ca^2+: 320.7 ± 97.4%
α9α10^α9extra; 10 µM ACh
  modulation of ACh-evoked responses by extracellular Ca^2+ (in words): not potentiated by Ca^2+, and only blocked by increasing Ca^2+ concentrations
α9α10^α9extra; 3 mM Ca^2+, 10 µM ACh
  ACh response, % of response at […] Ca^2+: 72.3 ± 5.3%
α9α10^α9extra; +40 mV, 10 µM ACh
  3 / 0 Ca^2+ ratio of response: 0.60 ± 0.08
α9α10^α9extra; -90 mV, 10 µM ACh
  3 / 0 Ca^2+ ratio of response: 0.20 ± 0.05
α9α10^α9extra; read-out: Ca^2+ IC50, block of responses to 10 µM ACh, -90 mV
  IC50: 700 ± 200 µM
α9α10^α9extra; zero Ca^2+, 10 µM ACh
  ACh response, % of response at […] Ca^2+: 217.3 ± 6.3%
α9α10^α9TM2TM3loop; 50 µM ACh
  modulation of ACh-evoked responses by extracellular Ca^2+ (in words): not potentiated by extracellular Ca^2+, but instead blocked by this ion
α9α10^α9TM2TM3loop; 3 mM Ca^2+, 50 µM ACh
  ACh response, % of response at […] Ca^2+: 71.3 ± 5.2%
α9α10^α9TM2TM3loop; 3 mM Ca^2+, sub-EC50 25 µM ACh
  ACh response, % of response at […] Ca^2+: 46.3 ± 20.9%
α9α10^α9TM2TM3loop; +40 mV, 50 µM ACh
  3 / 0 Ca^2+ ratio of response: 0.74 ± 0.14
α9α10^α9TM2TM3loop; -90 mV, 50 µM ACh
  3 / 0 Ca^2+ ratio of response: 0.14 ± 0.02
α9α10^α9TM2TM3loop; zero Ca^2+, 50 µM ACh
  ACh response, % of response at […] Ca^2+: 401.0 ± 103.4%
α9α10^α9TM2TM3loop; zero Ca^2+, sub-EC50 25 µM ACh
  ACh response, % of response at […] Ca^2+: 668.7 ± 340.2%
α9α10^α9Nt–TM1TM2loop
  modulation of ACh-evoked responses by extracellular Ca^2+ (in words): potentiated by Ca^2+ up to 0.2 mM and blocked by higher concentrations
α9α10^α9Nt–TM1TM2loop; 0.2 mM Ca^2+
  ACh response, % of response at […] Ca^2+: 358.3 ± 32.4%
α9α10^α9Nt–TM1TM2loop; 3 mM Ca^2+
  ACh response, % of response at […] Ca^2+: 73.5 ± 9.3%
α9α10^α9Nt–TM1TM2loop; +40 mV
  0.2 / 0 Ca^2+ ratio of response amplitudes: 5.9 ± 2.6
α9α10^α9Nt–TM1TM2loop; -90 mV
  0.2 / 0 Ca^2+ ratio of response amplitudes: 5.4 ± 2.4
α9α10^α9Nt–TM1TM2loop; nominally zero Ca^2+
  ACh response, % of response at […] Ca^2+: 95.2 ± 18.8%
α9α10E201Q; 100 µM ACh
  modulation of ACh-evoked responses by extracellular Ca^2+ (in words): not potentiated by Ca^2+
α9α10E201Q; 3 mM Ca^2+, 100 µM ACh
  ACh response, % of response at […] Ca^2+: 74.3 ± 11.2%
α9α10E201Q; +40 mV, 100 µM ACh
  3 / 0 Ca^2+ ratio of response: 0.53 ± 0.12
α9α10E201Q; -90 mV, 100 µM ACh
  3 / 0 Ca^2+ ratio of response: 0.18 ± 0.05
α9α10E201Q; [1]
  IC50: 900 ± 300 µM
α9α10E201Q; zero Ca^2+, 100 µM ACh
  ACh response, % of response at […] Ca^2+: 201.6 ± 39.7%
